Consider three compounds from patent US9266869B2, “Substituted dialkyl(oxido)-lambda4-sulfanylidene nicotinamide derivatives as kinase inhibitors” (Allergan, Inc., priority 2013, dated 2016).

In series [1] the target is VEGFR2 (KDR) (Homo sapiens (Human), UniProt P35968). As to the kind of experiment: VEGFR2 Kinase Assay. Conditions: purified cytoplasmic domain KDR protein, 2.7 μM ATP; read-out: VEGFR2 Enzyme Assay (IC50 nM). The format is biochemical. Here is the method: VEGFR2 Kinase Assay Biochemical KDR kinase assays were performed in 96 well microtiter plates that were coated overnight with 75 μg/well of poly-Glu-[…]:1) in 10 mM Phosphate Buffered Saline (PBS), pH 7.4. […] Reactions were carried out in 100 μL reaction volumes containing 2.7 μM ATP in kinase buffer (50 mM Hepes buffer pH 7.4, 20 mM MgCl2, 0.1 mM MnCl2 and 0.2 mM Na3VO4). […] Reactions were initiated by the addition 20 ul per well of kinase buffer containing 200-300 ng purified cytoplasmic domain KDR protein (BPS Bioscience, San Diego, Calif.). Following a 15 minute incubation at 30° C., the reactions were washed 2 mls per well PBS-T. 100 μl of a monoclonal anti-phosphotyrosine antibody-peroxidase conjugate diluted 1:10,000 in PBS-T was added to the wells for 30 minutes. Following a 2 mls per well wash with PBS-Tween-20, 100 μl of 0-Phenylenediamine Dihydrochloride in phosphate-citrate buffer, containing urea hydrogen peroxide, was added to the wells for 7-10 minutes as a colorimetric substrate for the peroxidase. […] IC50 values for compound inhibition were calculated directly from graphs of optical density (arbitrary units) versus compound concentration following subtraction of blank values.
VEGFR2 (KDR), sequence (P35968 786-1356): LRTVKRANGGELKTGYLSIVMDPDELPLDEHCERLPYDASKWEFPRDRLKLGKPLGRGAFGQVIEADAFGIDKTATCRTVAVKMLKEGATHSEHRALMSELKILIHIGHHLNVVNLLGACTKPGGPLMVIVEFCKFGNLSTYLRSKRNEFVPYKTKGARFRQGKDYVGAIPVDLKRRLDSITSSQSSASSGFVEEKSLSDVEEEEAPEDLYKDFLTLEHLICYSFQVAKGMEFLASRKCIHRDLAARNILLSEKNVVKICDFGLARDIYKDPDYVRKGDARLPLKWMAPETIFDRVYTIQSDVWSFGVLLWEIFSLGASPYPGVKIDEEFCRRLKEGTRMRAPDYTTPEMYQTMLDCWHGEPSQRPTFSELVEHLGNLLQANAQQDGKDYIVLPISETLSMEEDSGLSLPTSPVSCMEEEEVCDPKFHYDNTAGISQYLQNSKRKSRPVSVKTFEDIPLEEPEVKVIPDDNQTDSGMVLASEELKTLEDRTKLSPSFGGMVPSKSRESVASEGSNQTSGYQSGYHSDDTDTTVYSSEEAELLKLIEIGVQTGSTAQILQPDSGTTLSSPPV

Series [2] addresses VEGFR2 (Homo sapiens (Human), UniProt P35968). As to the kind of experiment: VEGFR2 Cellular Assay (VEGF induced intracellular calcium, FLIPR, HUVEC). Conditions: VEGF165 stimulation (10 ng/mL). In kind it is cell-based. How it is done:
(§1) VEGFR2 Cellular Assay Automated FLIPR (Fluorometric Imaging Plate Reader) technology was used to screen for inhibitors of VEGF induced increases in intracellular calcium levels in fluorescent dye loaded endothelial cells. HUVEC (human umbilical vein endothelial cells) (Clonetics) were seeded in 384-well fibronectin coated black-walled plates overnight @ 37° C./5% CO2. Cells were loaded with calcium indicator Fluo-4 for 45 minutes at 37° C. Cells were washed 2 times (Elx405, Biotek Instruments) to remove extracellular dye. For screening, cells were pre-incubated with test agents for 30 minutes, at a single concentration (10 uM) or at concentrations ranging from 0.0001 to 10.0 uM followed by VEGF165 stimulation (10 ng/mL). Changes in fluorescence at 516 nm were measured simultaneously in all 384 wells using a cooled CCD camera. Data were generated by determining max-min fluorescence levels for unstimulated, stimulated, and drug treated samples. IC50 values for test compounds were calculated from % inhibition of VEGF stimulated responses in the absence of inhibitor.

Series [3] deals with T1, PDGFRβ (Homo sapiens (Human), UniProt P09619). As to the kind of experiment: PDGFRβ Kinase Assay. The conditions noted are these: purified cytoplasmic domain PDGFR-b protein, 36 μM ATP; read-out: PDGFRβ Enzyme Assay (IC50 nM). In kind it is biochemical. Here is the method:
Biochemical PDGFRβ kinase assays were performed in 96 well microtiter plates that were coated overnight with 75 μg of poly-Glu-Tyr (4:1) in 10 mM Phosphate Buffered Saline (PBS), pH 7.4.
PBS-T prior to starting the reaction. Reactions were carried out in 100 μL reaction volumes containing 36 μM ATP in kinase buffer (50 mM Hepes buffer pH 7.4, 20 mM MgCl2, 0.1 mM MnCl2 and 0.2 mM Na3VO4). […] Reactions were initiated by the addition 20 ul per well of kinase buffer containing 200-300 ng purified cytoplasmic domain PDGFR-b protein (Millipore). Following a 60 minute incubation at 30° C., the reactions were washed 2 mls per well PBS-T. 100 μl of a monoclonal anti-phosphotyrosine antibody-peroxidase conjugate diluted 1:10,000 in PBS-T was added to the wells for 30 minutes. Following a 2 mls per well wash with PBS-Tween-20, 100 μl of O-Phenylenediamine Dihydrochloride in phosphate-citrate buffer, containing urea hydrogen peroxide, was added to the wells for 7-10 minutes as a colorimetric substrate for the peroxidase. […] IC50 values for compound inhibition were calculated directly from graphs of optical density (arbitrary units) versus compound concentration following subtraction of blank values.
Target sequence in this assay (P09619 554-1106): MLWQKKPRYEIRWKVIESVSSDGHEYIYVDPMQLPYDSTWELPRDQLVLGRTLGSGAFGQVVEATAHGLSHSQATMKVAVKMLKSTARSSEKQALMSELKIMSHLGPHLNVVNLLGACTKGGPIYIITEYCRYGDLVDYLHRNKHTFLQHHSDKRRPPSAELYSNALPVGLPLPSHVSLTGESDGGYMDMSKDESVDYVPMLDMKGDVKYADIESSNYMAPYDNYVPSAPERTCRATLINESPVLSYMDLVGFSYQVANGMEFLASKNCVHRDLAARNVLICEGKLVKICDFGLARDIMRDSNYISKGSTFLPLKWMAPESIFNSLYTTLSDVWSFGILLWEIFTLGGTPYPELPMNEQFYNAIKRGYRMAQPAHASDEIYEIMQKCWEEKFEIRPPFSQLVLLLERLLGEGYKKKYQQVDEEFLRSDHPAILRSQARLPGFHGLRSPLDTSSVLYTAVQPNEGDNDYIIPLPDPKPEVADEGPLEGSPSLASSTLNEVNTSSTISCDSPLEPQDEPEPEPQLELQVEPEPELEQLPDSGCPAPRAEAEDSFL

The subject of series [4] is VEGF permeability model. Briefly: VEGF permeability model, intravitreal injection. The format is in vivo. The conditions noted are these: dosed by intravitreal injection.
Series [5] addresses T1, PDGFRβ. Briefly: PDGFRβ Cellular Assay (PDGF-induced intracellular calcium, FLIPR, NHDF-Ad). The conditions noted are these: PDGF-BB stimulation (30 ng/mL). In kind it is cell-based. Here is the method:
as §1, with “Automated” for “VEGFR2 Cellular Assay Automated”, “of PDGF-induced” for “of VEGF induced”, “[…]. NHDF-Ad (Normal Human Dermal Fibroblasts, Adult; Lonza)” for “cells. HUVEC (human umbilical vein endothelial cells) (Clonetics)”, “by PDGF-BB” for “by VEGF165”, “stimulation (30” for “stimulation (10”, “of PDGF-BB” for “of VEGF”
Target sequence in this assay (P09619 33-1106): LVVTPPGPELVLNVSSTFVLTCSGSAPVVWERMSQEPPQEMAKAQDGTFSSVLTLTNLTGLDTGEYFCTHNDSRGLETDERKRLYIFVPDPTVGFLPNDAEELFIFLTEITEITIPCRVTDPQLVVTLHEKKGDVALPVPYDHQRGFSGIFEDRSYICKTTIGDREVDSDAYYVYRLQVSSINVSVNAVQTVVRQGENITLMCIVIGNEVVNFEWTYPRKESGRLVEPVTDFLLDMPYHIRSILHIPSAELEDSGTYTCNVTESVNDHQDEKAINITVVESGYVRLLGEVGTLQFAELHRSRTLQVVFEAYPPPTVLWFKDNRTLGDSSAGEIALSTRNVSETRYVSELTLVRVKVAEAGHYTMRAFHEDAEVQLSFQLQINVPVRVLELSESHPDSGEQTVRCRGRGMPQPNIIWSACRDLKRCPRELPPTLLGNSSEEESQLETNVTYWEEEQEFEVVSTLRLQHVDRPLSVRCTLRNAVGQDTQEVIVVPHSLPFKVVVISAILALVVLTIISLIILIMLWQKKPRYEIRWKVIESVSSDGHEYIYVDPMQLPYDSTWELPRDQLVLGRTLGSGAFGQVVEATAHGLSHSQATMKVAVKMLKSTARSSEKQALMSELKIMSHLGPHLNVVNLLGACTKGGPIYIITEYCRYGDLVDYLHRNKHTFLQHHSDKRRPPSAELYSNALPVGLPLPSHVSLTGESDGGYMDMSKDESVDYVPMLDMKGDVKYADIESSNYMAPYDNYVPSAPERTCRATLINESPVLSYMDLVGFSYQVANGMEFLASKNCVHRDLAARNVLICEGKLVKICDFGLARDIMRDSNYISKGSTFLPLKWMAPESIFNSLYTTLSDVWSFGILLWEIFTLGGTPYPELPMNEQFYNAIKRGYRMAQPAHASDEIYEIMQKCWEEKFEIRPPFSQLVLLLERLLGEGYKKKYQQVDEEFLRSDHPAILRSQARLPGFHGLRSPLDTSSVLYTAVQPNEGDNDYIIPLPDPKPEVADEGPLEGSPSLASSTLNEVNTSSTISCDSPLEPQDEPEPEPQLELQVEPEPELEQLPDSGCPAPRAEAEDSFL
A general note: A change in cytosolic calcium serves as a functional read-out for many receptors and channels.

VEGFR2, sequence (P35968 20-1356): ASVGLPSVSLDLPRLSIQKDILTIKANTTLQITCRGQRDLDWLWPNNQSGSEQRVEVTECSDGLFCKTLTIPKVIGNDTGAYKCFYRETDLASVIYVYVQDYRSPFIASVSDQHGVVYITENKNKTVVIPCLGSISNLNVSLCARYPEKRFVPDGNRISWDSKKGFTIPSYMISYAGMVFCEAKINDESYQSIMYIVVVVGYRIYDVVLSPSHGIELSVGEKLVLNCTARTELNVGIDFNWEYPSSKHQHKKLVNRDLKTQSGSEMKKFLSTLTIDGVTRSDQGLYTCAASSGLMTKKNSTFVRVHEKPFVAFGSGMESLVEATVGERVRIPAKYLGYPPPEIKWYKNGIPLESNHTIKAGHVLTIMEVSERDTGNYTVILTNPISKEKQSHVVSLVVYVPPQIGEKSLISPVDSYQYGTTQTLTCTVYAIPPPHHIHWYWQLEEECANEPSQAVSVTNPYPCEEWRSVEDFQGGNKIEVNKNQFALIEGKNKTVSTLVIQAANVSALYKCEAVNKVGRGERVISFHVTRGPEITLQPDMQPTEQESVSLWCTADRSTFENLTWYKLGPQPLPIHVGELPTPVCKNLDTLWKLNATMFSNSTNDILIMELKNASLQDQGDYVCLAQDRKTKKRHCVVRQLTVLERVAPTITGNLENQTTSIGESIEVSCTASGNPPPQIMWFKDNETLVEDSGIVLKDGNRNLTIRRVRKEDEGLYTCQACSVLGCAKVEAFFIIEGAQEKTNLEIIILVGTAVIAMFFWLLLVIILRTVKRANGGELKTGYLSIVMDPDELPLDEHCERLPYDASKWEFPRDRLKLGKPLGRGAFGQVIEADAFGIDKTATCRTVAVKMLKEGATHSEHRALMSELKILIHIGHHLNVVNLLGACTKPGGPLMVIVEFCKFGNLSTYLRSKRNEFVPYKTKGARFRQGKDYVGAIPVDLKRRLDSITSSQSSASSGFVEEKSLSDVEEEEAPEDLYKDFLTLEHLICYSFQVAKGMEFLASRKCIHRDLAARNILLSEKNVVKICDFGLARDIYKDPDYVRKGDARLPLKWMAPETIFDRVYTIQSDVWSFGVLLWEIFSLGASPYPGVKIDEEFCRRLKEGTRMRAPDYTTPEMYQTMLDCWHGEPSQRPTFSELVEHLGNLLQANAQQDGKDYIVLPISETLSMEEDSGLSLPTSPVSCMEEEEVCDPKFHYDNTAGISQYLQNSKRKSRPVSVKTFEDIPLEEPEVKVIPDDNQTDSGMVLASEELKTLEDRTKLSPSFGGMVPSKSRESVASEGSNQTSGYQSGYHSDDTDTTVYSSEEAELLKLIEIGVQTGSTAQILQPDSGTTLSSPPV

Consider `COC(=O)CCCC[S@](C)(=O)=NC(=O)c1cnc(N)c(C#Cc2cccc(NC(=O)c3occc3C)c2)c1` [Example 32, (S)-methyl 5-(N-{[6-amino-5-({3-[(3-methyl-2-furoyl)amino]phenyl}ethynyl)pyridin-3-yl]carbonyl}-S-methylsulfonimidoyl)pentanoate], for which the IC50 – broadly, the midpoint of a concentration-inhibition curve – worked out at 3 nM in series [1], 1 nM in series [2], 31 nM in series [3] and 60 nM in series [5]. Moreover, in series [4], the “in vivo efficacy in the VEGF permeability model” value (“in vivo efficacy” for short) is recorded as “good in vivo efficacy”.

On to `COC(=O)CCCC[S@@](C)(=O)=NC(=O)c1cnc(N)c(C#Cc2cccc(NC(=O)c3occc3C)c2)c1` [Example 33, (R)-Methyl 5-(N-{[6-amino-5-({3-[(3-methyl-2-furoyl)amino]phenyl}ethynyl)pyridin-3-yl]carbonyl}-S-methylsulfonimidoyl)pentanoate], for which the 50% inhibitory concentration (IC50) in series [1] is 6 nM; in series [2] it was 1 nM; in series [3], 27 nM; in series [5], 86 nM. Also, the “in vivo efficacy” value in series [4] is recorded as “good in vivo efficacy”.

For `COC(=O)CCCCS(C)(=O)=NC(=O)c1cnc(N)c(C#Cc2cccc(C(=O)Nc3cccc(C)c3)c2)c1` (stereo not drawn) [Example 34, Methyl 5-[N-({6-amino-5-[(3-{[(3-methylphenyl)amino]carbonyl}phenyl)ethynyl]pyridin-3-yl}carbonyl)-S-methylsulfonimidoyl]pentanoate], the IC50 in series [1] is 7 nM; in series [2] it was 2 nM; in series [3], 15 nM; in series [5], 13 nM. Further, the “in vivo efficacy” value in series [4] is “good in vivo efficacy”.
